This is an account of results in US9795140B2, “Molecules having pesticidal utility, and intermediates, compositions, and processes, related thereto” (priority 2015, dated 2017).

Holding throughout (type): in vivo
Data set [1] relates to Yellow Fever Mosquito (Aedes aegypti, AEDSAE). The data set is described as follows: Bioassay on Yellow Fever Mosquito (YFM) larvae, 96-well plate. To be noted: about 1 day-old larvae, room temperature, 3 days, scored on mortality. Summed up: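 Compound stocks at 4000 ppm in DMSO were diluted with 90:10 water/acetone, and 15 μL aliquots were dispensed into six replicate plates. About 1-day-old larvae in liver-powder water were added per well. Plates were covered and held at room temperature for 3 days before each well was scored for mortality.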

The test system of data set [2] is Cabbage Looper (Trichoplusia ni, TRIPNI). The experiment in a line: Bioassay on Cabbage Looper (CL), 128-well diet tray assay. The conditions noted are these: 168 h, 50 μg/cm^2 on artificial diet, second instar larvae, 25° C., five to seven days, average of eight wells, read-out: CL % Control (or Mortality) rating. Summed up: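 Percent larval mortality, averaged across eight replicate wells, was scored after 5–7 days at 25 °C with a 14:10 photoperiod. Each well held 1 mL diet surface-treated at 50 μg/cm^2 with test molecule from a 90:10 acetone-water solution, then dried. Wells were infested with one to five second-instar cabbage loopers.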

Data set [3] concerns Beet Armyworm (Spodoptera exigua, LAPHEG). The experiment in a line: Bioassay on Beet Armyworm (BAW), 128-well diet tray assay. To be noted: 168 h, 50 μg/cm^2 on artificial diet, second instar larvae, 25° C., five to seven days, average of eight wells, read-out: BAW % Control (or Mortality) rating. Summed up: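 Test molecule dissolved in acetone-water 90:10 is applied at 50 μg/cm^2 onto artificial diet and allowed to dry. Second instar larvae, one to five per well, are then added, and trays are vented and kept at 25° C. for five to seven days before mortality is scored.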

Data set [4] relates to Green Peach Aphid (Myzus persicae, MYZUPE). The experiment in a line: Bioassay on Green Peach Aphid (GPA), foliar spray on cabbage seedlings. The conditions noted are these: 72 h, 200 ppm spray on infested cabbage seedlings, three days, Abbott corrected % control, read-out: GPA % Control (or Mortality) rating. The protocol: Certain molecules disclosed in this document were tested against GPA using procedures described in the following example. In the reporting of the results, the “GPA & YFM Rating Table” was used (See Table Section).
Cabbage seedlings grown in 3-inch pots, with 2-3 small (3-5 cm) true leaves, were used as test substrate. The seedlings were infested with 20-50 GPA (wingless adult and nymph stages) one day prior to chemical application. Four pots with individual seedlings were used for each treatment. Test molecules (2 mg) were dissolved in 2 mL of acetone/methanol (1:1) solvent, forming stock solutions of 1000 ppm test molecule. The stock solutions were diluted 5× with 0.025% Tween 20 in water to obtain the solution at 200 ppm test molecule. A hand-held aspirator-type sprayer was used for spraying a solution to both sides of […] leaves until runoff. Reference plants (solvent check) were sprayed with the diluent only containing 20% by volume of acetone/methanol (1:1) solvent. Treated plants were held in a holding room for three days at approximately 25° C. and ambient relative humidity (RH) prior to grading. Evaluation was conducted by counting the number of live aphids per plant under a microscope. Percent control was measured using Abbott's correction formula (W. S. Abbott, “A Method of Computing the Effectiveness of an Insecticide” J. Econ. Entomol. 18 (1925), pp. 265-267) as follows. Corrected % Control=100*(X−Y)/X where X=No. of live aphids on solvent check plants and Y=No. of live aphids on treated plants. The results are indicated in the table entitled “Table ABC: Biological Results” (See Table Section).

Regarding `O=C(NCc1cccnc1)c1cc(NC(=O)[C@H]2[C@H](c3cc(Cl)cc(Cl)c3)C2(Cl)Cl)ccc1Cl` (relative stereo) [F6, trans-2-Chloro-5-(2,2-dichloro-3-(3,5-dichlorophenyl)cyclopropane-1-carboxamido)-N-(pyridin-3-ylmethyl)benzamide], in data set [1], the “YFM % Control (or Mortality) rating” value is on record as “A (80-100)”. Also, the mortality at 50 µg/cm2 in data set [2] and in data set [3] was 50 to 100% in each case. For the same molecule, in data set [4], the mortality (usually the share of the test organisms that died) at 200 ppm is 0 to 80%.
For `O=C(NOCc1ccc(F)cc1)c1cc(NC(=O)C2C(c3cc(Cl)cc(Cl)c3)C2(Cl)Cl)ccc1Cl` (stereo not drawn) [F17, trans-N-2-Chloro-5-(2,2-dichloro-3-(3,5-dichlorophenyl)cyclopropane-1-carboxamido)-N-((4-fluorobenzyl)oxy)benzamide], in data set [1], the “YFM % Control (or Mortality) rating” value was “A (80-100)”. In addition, the mortality at 50 µg/cm2 in data set [2] and in data set [3] was 50 to 100% in each case. In addition, in data set [4], the mortality at 200 ppm lay in the range of 0 to 80%.
`CCCNC(=O)c1cc(NC(=O)[C@H]2[C@H](c3cc(Cl)cc(Cl)c3)C2(Cl)Cl)ccc1Cl` (relative stereo) [F56, trans-2-Chloro-5-(2,2-dichloro-3-(3,5-dichlorophenyl)cyclopropane-1-carboxamido)-N-propylbenzamide]: the “YFM % Control (or Mortality) rating” value in data set [1] is “A (80-100)”. Moreover, the mortality at 50 µg/cm2 in data set [2] and in data set [3] was 50 to 100% each time. The mortality at 200 ppm in data set [4] lay within 80 to 100%.
Turning to `O=C(NOc1ccccc1)c1cc(NC(=O)[C@H]2[C@H](c3cc(Cl)cc(Cl)c3)C2(Cl)Cl)ccc1Cl` (relative stereo) [F29, trans-2-chloro-5-(2,2-dichloro-3-(3,5-dichlorophenyl)cyclopropane-1-carboxamido)-N-phenoxybenzamide], the “YFM % Control (or Mortality) rating” value in data set [1] is on record as “A (80-100)”. In addition, the mortality at 50 µg/cm2 in data set [2] and in data set [3] was 0% each time. The mortality at 200 ppm in data set [4] was in the range of 0 to 80%.
In the case of `O=C(NOCC1CC1(F)F)c1cc(NC(=O)C2C(c3ccc(Cl)c(Cl)c3)C2(Cl)Cl)ccc1Cl` (stereo not drawn) [F22, trans-N-2-Chloro-5-(2,2-dichloro-3-(3,4-dichlorophenyl)cyclopropane-1-carboxamido)-N-((2,2-difluorocyclopropyl)methoxy)benzamide], in data set [1], the “YFM % Control (or Mortality) rating” value is recorded as “B (More than 0-Less than 80)”. Also, the mortality at 50 µg/cm2 in data set [2] and in data set [3] was 50 to 100% throughout. In data set [4], the mortality at 200 ppm is 80 to 100%.
As for `CN(CC(F)(F)F)C(=O)c1cc(NC(=O)[C@H]2[C@H](c3cc(Cl)cc(Cl)c3)C2(Cl)Cl)ccc1Cl` (relative stereo) [F59, trans-2-Chloro-5-(2,2-dichloro-3-(3,5-dichlorophenyl)cyclopropane-1-carboxamido)-N-methyl-N-(2,2,2-trifluoroethyl)benzamide], the “YFM % Control (or Mortality) rating” value in data set [1] is on record as “A (80-100)”. The mortality at 50 µg/cm2 in data set [2] and in data set [3] was 50 to 100% throughout. Besides, the mortality at 200 ppm in data set [4] fell in the range of 0 to 80%.
As to `O=C(NCCc1ccc(F)cc1)c1cc(NC(=O)C2C(c3cc(Cl)c(Cl)c(Cl)c3)C2(Cl)Cl)ccc1Cl` (stereo not drawn) [F20, trans-N-2-Chloro-5-(2,2-dichloro-3-(3,4,5-trichlorophenyl)cyclopropane-1-carboxamido)-N-(4-fluorophenethyl)benzamide], in data set [1], the “YFM % Control (or Mortality) rating” value was “A (80-100)”. The mortality at 50 µg/cm2 in data set [2] and in data set [3] was 50 to 100% each time. For the same molecule, the mortality at 200 ppm in data set [4] is 0 to 80%.
With `CC(=O)NCCNC(=O)c1cc(NC(=O)[C@H]2[C@H](c3cc(Cl)cc(Cl)c3)C2(Cl)Cl)ccc1Cl` (relative stereo) [F55, trans-N-(2-Acetamidoethyl)-2-chloro-5-(2,2-dichloro-3-(3,5-dichlorophenyl)cyclopropane-1-carboxamido)benzamide], in data set [1], the “YFM % Control (or Mortality) rating” value is given as “B (More than 0-Less than 80)”. Also, the mortality at 50 µg/cm2 in data set [2] and in data set [3] was 50 to 100% throughout. Also, the mortality at 200 ppm in data set [4] lay within 80 to 100%.
